23 compounds from patent US7491827B2, “Aryl sulfonamides useful as inhibitors of chemokine receptor activity” (Millennium Pharmaceuticals, Inc., priority 2003, dated 2009) can be followed below.

Where two headings read alike, the source gives them in different places.

This experiment deals with T1, cloned human CCR8 receptor stably expressed in L1.2 cells (Homo sapiens, UniProt P51685).
T1 construct: expressed in transfected cells
The experiment in a line: whole cell binding screen: inhibition of biotinylated human I309 binding to CCR8 (FMAT 8100 HTS). The note with it: biotinylated human I-309, 10 point concentration response starting at 10 μM. The method in brief:
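L1.2 murine pre-B cells stably expressing human CCR8 (4.0×10^5 cells/mL) in HBSS/HEPES/fatty-acid-free BSA/azide buffer were mixed with biotinylated human I309 and compounds for 0.5 h, read by FMAT fluorescence. 10-point curves from 10 μM final; percent inhibition normalized to no-inhibitor and 100 nM unlabeled I309 controls.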

[1] abbreviates: L1.2/hCCR8 cells, read-out: Ki of compounds to inhibit I-309 binding to CCR8.

T1 sequence (P51685 whole entry): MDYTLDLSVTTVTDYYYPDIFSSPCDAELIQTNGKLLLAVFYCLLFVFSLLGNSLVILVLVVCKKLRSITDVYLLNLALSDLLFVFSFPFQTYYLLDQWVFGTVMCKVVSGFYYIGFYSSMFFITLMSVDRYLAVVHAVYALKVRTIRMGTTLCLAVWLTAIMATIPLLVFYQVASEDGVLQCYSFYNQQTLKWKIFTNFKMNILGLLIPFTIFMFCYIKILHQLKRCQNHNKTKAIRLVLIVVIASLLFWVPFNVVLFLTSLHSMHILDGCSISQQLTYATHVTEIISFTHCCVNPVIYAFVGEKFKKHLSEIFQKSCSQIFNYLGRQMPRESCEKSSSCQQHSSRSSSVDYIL

Take `Cc1ccccc1C(=O)Nc1ccc(S(=O)(=O)NC2CCN(Cc3ccccc3)CC2(C)C)c2ccccc12` (racemic) [Compound A-24, (±)-N-[4-(1-Benzyl-3,3-dimethyl-piperidin-4-ylsulfamoyl)-naphthalen-1-yl]-2-methyl-benzamide]: the Ki under setting [1] was below 500 nM.
On the same count and under the same terms, with `Cc1ccccc1C(=O)Nc1ccc(S(=O)(=O)N[C@@H]2CCN(C(=O)[C@@H]3CCCN3)C[C@H]2C)c2ccccc12` [Compound J-1, (3R,4R)-2-(S)-Methyl-N-{4-[3-methyl-1-(pyrrolidine-2-carbonyl)-piperidin-4-ylsulfamoyl]-naphthalen-1-yl}-benzamide] the figure was below 500 nM; with `CN(C)C(=O)N1CCC(NS(=O)(=O)c2ccc(C(=O)NC3CCCCC3)c3ccccc23)CC1` [Compound F-6, 4-(4-Cyclohexylcarbamoyl-naphthalene-1-sulfonylamino)-piperidine-1-carboxylic acid dimethylamide], below 500 nM; with `O=C1c2ccccc2C(=O)N1Cc1ccc(S(=O)(=O)NC2CCCCC2)c2ccccc12` [Compound G-4, 4-(1,3-Dioxo-1,3-dihydro-isoindol-2-ylmethyl)-naphthalene-1-sulfonic acid cyclohexylamide], below 30000 nM.
Still for that read-out and setting: the figure for `CCOC(=O)N1CC[C@H](NS(=O)(=O)c2ccc(NC(=O)c3ccccc3C)c3ccccc23)[C@@H](C)C1` (racemic) [Compound C-17, (±)-trans-3-Methyl-4-[4-(2-methyl-benzoylamino)-naphthalene-1-sulfonylaminno]-piperidine-1-carboxylic acid ethyl ester] is below 500 nM; for `Cc1ccccc1C(=O)Nc1ccc(S(=O)(=O)NC2CCN(C(=O)N3CCCC3)CC2)c2c1CCCC2` [Compound E-11, 2-Methyl-N-{4-[1-(pyrrolidine-1-carbonyl)-piperidin-4-ylsulfamoyl]-5,6,7,8-tetrahydro-naphthalen-1-yl}-benzamide] it is below 500 nM.
Consider `CCOC(=O)N1CCC(NS(=O)(=O)c2ccc(NC(=O)c3cccc(C)c3)c3ccccc23)CC1` [Compound B-13, 4-[4-(3-Methyl-benzoylamino)-naphthalene-1-sulfonylamino]-piperidine-1-carboxylic acid ethyl ester], for which the Ki under setting [1] is below 1000 nM.
For the compound `COc1ccc(NS(=O)(=O)c2ccc(NC(=O)c3ccc([N+](=O)[O-])cc3)c3ccccc23)cc1` [Compound B-3, N-[4-(4-Methoxy-phenylsulfamoyl)-naphthalen-1-yl]-4-nitro-benzamide], the Ki under setting [1] is below 30000 nM.
Still for that read-out and setting: with `CCCC(=O)N1CCC(NS(=O)(=O)c2ccc(NC(=O)c3ccccc3C)c3c2CCCC3)CC1` [Compound E-1, N-[4-(1-Butyryl-piperidin-4-ylsulfamoyl)-5,6,7,8-tetrahydro-naphthalen-1-yl]-2-methyl-benzamide] the figure was below 500 nM.
Consider `CCOC(=O)N1CC[C@H](NS(=O)(=O)c2ccc(N)c3ccccc23)[C@H](C)C1` (racemic) [Compound D-2, (±)-(cis)4-(4-amino-naphthalene-1-sulfonylamino)-3-methyl-piperidine-1-carboxylic acid ethyl ester], for which, under setting [1], the inhibition constant (Ki) was below 30000 nM.
Turning to `CC(=O)N1CC[C@H](NS(=O)(=O)c2ccc(NC(=O)c3ccccc3C)c3ccccc23)[C@@H](C)C1` (racemic) [Compound C-31, (±)-(trans)-N-[4-(1-Acetyl-3-methyl-piperidin-4-ylsulfamoyl)-naphthalen-1-yl]-2-methyl-benzamide], the Ki under setting [1] was below 500 nM.
On the same count and under the same terms, with `Cc1ccccc1C(=O)Nc1cccc2c(S(=O)(=O)N[C@H]3CCN(C(=O)CN(C)C)C[C@H]3C)cccc12` (racemic) [Compound K-1, (±)-(cis)-N-{5-[1-(2-Dimethylamino-acetyl)-3-methyl-piperidin-4-ylsulfamoyl]-naphthalen-1-yl}-2-methyl-benzamide] the figure was below 500 nM.
Still for that read-out and setting: the figure for `CCOC(=O)N1CC[C@H](NS(=O)(=O)c2ccc(NC(=O)c3cccnc3C)c3ccccc23)[C@@H](C)C1` (racemic) [Compound D-9, (±)-(trans)-3-Methyl-4-{4-[(2-methyl-pyridine-3-carbonyl)-amino]-naphthalene-1-sulfonylamino}-piperidine-1-carboxylic acid ethyl ester] is below 500 nM.
Same read-out and setting: with `CNC(=O)N1CCC(NS(=O)(=O)c2ccc(NC(=O)c3ccccc3C)c3c2CCCC3)CC1` [Compound E-22, 4-[4-(2-Methyl-benzoylamino)-5,6,7,8-tetrahydro-naphthalene-1-sulfonylamino]-piperidine-1-carboxylic acid methylamide] the figure was below 500 nM.
As to `O=C(Nc1ccc(S(=O)(=O)Nc2ccncc2)c2ccccc12)c1ccccc1` [Compound A-14, N-[4-(Pyridin-4-ylsulfamoyl)-naphthalen-1-yl]-benzamide], the Ki under setting [1] was below 500 nM.
The same measure, in the same setting: with `CCOC(=O)N1CCC(NS(=O)(=O)c2ccc(CNCc3cccnc3)c3ccccc23)CC1` [Compound G-12, 4-(4-{[(Pyridin-3-ylmethyl)-amino]-methyl}-naphthalene-1-sulfonylamino)-piperidine-1-carboxylic acid ethyl ester] the figure was below 500 nM.
In turn, `CCCNC(=O)N1CCC(NS(=O)(=O)c2ccc(NC(=O)c3ccccc3C)c3ccccc23)CC1` [Compound C-45, 4-[4-(2-Methyl-benzoylamino)-naphthalene-1-sulfonylamino]-piperidine-1-carboxylic acid propylamide] displayed a Ki (Ki of compounds to inhibit I-309 binding to CCR8, L1.2/hCCR8 cells) below 500 nM.
On to `CCOC(=O)N1CCC(NS(=O)(=O)c2cccc3c(NC(=O)c4ccco4)cccc23)CC1` [Compound H-8, 4-{5-[(Furan-2-carbonyl)-amino]-naphthalene-1-sulfonylamino}-piperidine-1-carboxylic acid ethyl ester], for which the Ki under setting [1] was below 500 nM.
Same read-out and setting: with `CCOC(=O)N1CCC(NS(=O)(=O)c2cccc3c(NC(=O)c4cccs4)cccc23)CC1` [Compound H-9, 4-15-[(Thiophene-2-carbonyl)-amino]-naphthalene-4-sulfonylamino-4-piperidine-1-carboxylic acid ethyl ester] the figure was below 1000 nM.
Still for that read-out and setting: the figure for `COc1ccc(NS(=O)(=O)c2ccc(NC(=O)c3ccccc3)c3c2CCCC3)cc1` [Compound E-3, N-[4-(4-Methoxy-phenylsulfamoyl)-5,6,7,8-tetrahydro-naphthalen-1-yl]-benzamide] is below 500 nM.
On to `CCOC(=O)N1CCC(NS(=O)(=O)c2cccc3c(C(=O)Nc4cccc(C)c4C)cccc23)CC1` [Compound H-36, 4-[5-(2,3-Dimethyl-phenylcarbamoyl)-naphthalene-1-sulfonylamno]-piperidine-1-carboxylic acid ethyl ester], for which the Ki under setting [1] was below 500 nM.
The same measure, in the same setting: with `CCCC(=O)N1CC[C@@H](NS(=O)(=O)c2ccc(NC(=O)c3ccccc3C)c3ccccc23)[C@@H](C)C1` (single isomer, unassigned) [Compound C-141, cis-N-[4-(1-butyryl-3-methyl-piperidin-4-ylsuffamoyl)-naphthalen-1-yl]-2-methyl-benzamide] the figure was below 1000 nM.
On the same count and under the same terms, with `Cc1ccccc1C(=O)Nc1ccc(S(=O)(=O)NC2CCN(C(=O)CN(C)C)CC2)c2c1CCCC2` [Compound E-17, N-{4-[1-(2-Dimethylandno-acetl)-piperidin-4-ylsulfamoyl]-5,6,7,8-tetrahydro-naphthalen-1-yl}-2-methyl-benzamide] the figure was below 500 nM.

As usually defined, the Ki is a measure of affinity in units of concentration, obtained from inhibition or displacement.
